{"source": "paper PMC8981238", "about": "“C-type cytochrome-initiated reduction of bacterial lytic polysaccharide monooxygenases” (Biochemical Journal, 2021)", "biological_target": "T1, CfAA10 (Cellulomonas fimi, UniProt F4H6A3)", "T1 construct": "gene Celf_0270; apparently with its C-terminal CBM (truncation told only for the C. japonicus enzyme)", "T1 sequence (F4H6A3 entry or part of it)": "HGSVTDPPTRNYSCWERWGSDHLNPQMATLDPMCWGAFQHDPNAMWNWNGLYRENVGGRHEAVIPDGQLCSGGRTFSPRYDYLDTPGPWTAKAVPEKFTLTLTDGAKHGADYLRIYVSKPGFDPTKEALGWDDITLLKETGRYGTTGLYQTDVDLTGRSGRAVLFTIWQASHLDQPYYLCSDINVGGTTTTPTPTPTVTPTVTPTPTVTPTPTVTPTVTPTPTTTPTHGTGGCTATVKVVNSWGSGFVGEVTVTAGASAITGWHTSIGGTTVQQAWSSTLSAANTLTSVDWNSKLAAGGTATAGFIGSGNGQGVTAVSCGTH", "assay": "Amplex Red / horseradish peroxidase coupled H2O2 production, initial rates", "format": "biochemical", "conditions": "reductant varied, no polysaccharide, O2 from air, 50 mM sodium phosphate pH 6.0, room temperature, 2 µM LPMO"}
{"smiles": "O=C1O[C@H]([C@@H](O)CO)C(O)=C1O", "note": "[ascorbate]", "values": [{"measurement": "KM", "result": "KM is consistently lower when CjX183 is used as the reductant compared with ascorbate"}]}
